Data from patent US8101198B2, “Osteogenic enhancer composition” (The Regents of the University of California, priority 2007, dated 2012).

Key:
[1] = test system: rat osteoblastic cells; assay: Mineralization assays, Von Kossa and Alizarin Red stain (Example 1); format: cell-based; details: NAC added into culture medium, day 14; dose-dependent; p<0.001
Procedure: Bone marrow cells isolated from the femur of 8-week-old male Sprague-Dawley rats were placed into alpha-modified Eagle's medium supplemented with 15% fetal bovine serum, 50 µg/ml ascorbic acid, 10^−8M dexamethasone, 10 mM Na-β-glycerophosphate and Antibiotic-antimycotic solution containing 10,000 units/ml Penicillin G sodium, 10,000 mg/ml Streptomycin sulfate and 25 mg/ml Amphotericin B. Cells were incubated in a humidified atmosphere of 95% air, 5% CO2 at 37° C. At 80% confluency, the cells were detached using 0.25% Trypsin-1 mM EDTA-4Na and seeded either the polystyrene dish with or without NAC addition, bone substitute material (demineralized bone matrix, Orthoblast, IsoTis OrthoBiologics, Inc. Irvine, Calif.), collagen gel (PureCol, Inamed, Fremont, Calif.) or bone cement (Endurance MV, DePuy Orthopaedics, Warsaw, Ind.) with or without NAC incorporation at a density of 4×10^4 cells/cm^2. The culture medium was renewed every three days. The NAC incorporated bone graft substitute and collagen membrane materials were prepared by soaking each of the materials in NAC for 24 hours. The NAC-incorporated collagen gel was prepared by mixing the collagen gel and NAC. […] (%) was measured using a digitized image analysis system (Image Pro-plus, Media Cybernetics, MD). Three independent cultures were evaluated in each of the experimental groups.

[2] = test system: rat osteoblastic cells; assay: Alkaline phosphatase (ALP) stain of osteoblastic culture (Example 1); format: cell-based; details: NAC added into osteoblastic culture, day 7; dose-dependent up to 5 mM; p<0.001 vs without NAC
Procedure: Bone marrow cells isolated from the femur of 8-week-old male Sprague-Dawley rats were placed into alpha-modified Eagle's medium supplemented with 15% fetal bovine serum, 50 µg/ml ascorbic acid, 10^−8M dexamethasone, 10 mM Na-β-glycerophosphate and Antibiotic-antimycotic solution containing 10,000 units/ml Penicillin G sodium, 10,000 mg/ml Streptomycin sulfate and 25 mg/ml Amphotericin B. Cells were incubated in a humidified atmosphere of 95% air, 5% CO2 at 37° C. At 80% confluency, the cells were detached using 0.25% Trypsin-1 mM EDTA-4Na and seeded either the polystyrene dish with or without NAC addition, bone substitute material (demineralized bone matrix, Orthoblast, IsoTis OrthoBiologics, Inc. Irvine, Calif.), collagen gel (PureCol, Inamed, Fremont, Calif.) or bone cement (Endurance MV, DePuy Orthopaedics, Warsaw, Ind.) with or without NAC incorporation at a density of 4×10^4 cells/cm^2. The culture medium was renewed every three days. The NAC incorporated bone graft substitute and collagen membrane materials were prepared by soaking each of the materials in NAC for 24 hours. The NAC-incorporated collagen gel was prepared by mixing the collagen gel and NAC. […] The stained images were analyzed for ALP positive area defined as [(stained area/total dish area)×100)] […] Three independent cultures were evaluated in each the experimental groups.

[3] = test system: osteoblastic culture; assay: Gene expression analysis of bone-related genes by RT-PCR (Example 1); format: cell-based, rat; details: relative to GAPDH
Procedure: Bone marrow cells isolated from the femur of 8-week-old male Sprague-Dawley rats were placed into alpha-modified Eagle's medium supplemented with 15% fetal bovine serum, 50 µg/ml ascorbic acid, 10^−8M dexamethasone, 10 mM Na-β-glycerophosphate and Antibiotic-antimycotic solution containing 10,000 units/ml Penicillin G sodium, 10,000 mg/ml Streptomycin sulfate and 25 mg/ml Amphotericin B. Cells were incubated in a humidified atmosphere of 95% air, 5% CO2 at 37° C. At 80% confluency, the cells were detached using 0.25% Trypsin-1 mM EDTA-4Na and seeded either the polystyrene dish with or without NAC addition, bone substitute material (demineralized bone matrix, Orthoblast, IsoTis OrthoBiologics, Inc. Irvine, Calif.), collagen gel (PureCol, Inamed, Fremont, Calif.) or bone cement (Endurance MV, DePuy Orthopaedics, Warsaw, Ind.) with or without NAC incorporation at a density of 4×10^4 cells/cm^2. The culture medium was renewed every three days. The NAC incorporated bone graft substitute and collagen membrane materials were prepared by soaking each of the materials in NAC for 24 hours. The NAC-incorporated collagen gel was prepared by mixing the collagen gel and NAC. The expression of bone-related genes was analyzed using the reverse transcription-polymerase chain reaction (RT-PCR). Total RNA in the cultures was extracted using TRIzol (Invitrogen, Carlsbad, Calif.) and purification column (RNeasy, Qiagen, Valencia, Calif.). Following DNAse I treatment, reverse transcription of 0.5 μg of total RNA was performed using MMLV reverse transcriptase (Clontech, Carlsbad, Calif.) in the presence of oligo(dT) primer (Clontech, Carlsbad, Calif.). The PCR reaction was performed using Taq DNA polymerase (EX Taq, Takara Bio, Madison, Wis.) to detect alpha-I type I collagen (collagen I), osteopontin, and osteocalcin mRNA. The primer sequences and PCR conditions are described previously. Resulting products were visualized on 1.5% agarose gel with ethidium bromide staining. The intensity of bands was quantified under UV light, and the values were normalized with reference to GAPDH mRNA.

Question: Which results are given for `CC(=O)N[C@@H](CS)C(=O)O` [NAC, N-acetyl cysteine]?
Answer: Von Kossa positive area (mineralizing capability) [1]: significantly increased; alkaline phosphatase activity (ALP positive area) [2]: increased; gene expression level of Bmp2 ([3]; NAC addition to the culture): significantly elevated; gene expression level of Runx2/cbfa1 ([3]; NAC addition to the culture): significantly elevated; osteocalcin expression ([3]; culture with NAC, early stage of day 3): upregulated; expression of collagen I ([3]; culture with NAC, up to day 14): upregulated; expression of osteopontin ([3]; culture with NAC, up to day 14): upregulated
